Assay results taken from ChEMBL document CHEMBL1201862, “PubChem BioAssay data set” (2004).
Where a name gives a salt, the structure may show the parent alone.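 96-well plates; 48 h exposure; 5 concentrations. Endpoints by linear interpolation between flanking doses. Not reached: highest tested concentration assigned. GI50 = concentration required for 50% inhibition of growth.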 Activity calls are given as the source filed them. No stated cut-off is given here; in the data, active = GI50 up to about 1.1 µM and inactive = higher.

Assays:
Experiment in all cases: NCI anticancer screen, dose series, 48 h
SF-539 = system: SF-539
TK-10 = system: TK-10
HL-60 = system: HL-60
SW-620 = system: SW-620
A498 = system: A498
EKVX = system: EKVX
MOLT-4 = system: MOLT-4
UACC-62 = system: UACC-62
MCF7 = system: MCF7
NCI/ADR-RES = system: NCI/ADR-RES
SK-MEL-5 = system: SK-MEL-5
UACC-257 = system: UACC-257
RXF 393 = system: RXF 393
PC-3 = system: PC-3
RPMI-8226 = system: RPMI-8226
K562 = system: K562
HT-29 = system: HT-29
Malme-3M = system: Malme-3M
UO-31 = system: UO-31
HCC 2998 = system: HCC 2998

| Structure (SMILES) | GI50 (SF-539) | GI50 (TK-10) | GI50 (HL-60) | GI50 (SW-620) | GI50 (A498) | GI50 (EKVX) | GI50 (MOLT-4) | GI50 (UACC-62) | GI50 (MCF7) | GI50 (NCI/ADR-RES) | GI50 (SK-MEL-5) | GI50 (UACC-257) | GI50 (RXF 393) | GI50 (PC-3) | GI50 (RPMI-8226) | GI50 (K562) | GI50 (HT-29) | GI50 (Malme-3M) | GI50 (UO-31) | GI50 (HCC 2998) |
| --- | --- | --- | --- | --- | --- | --- | --- | --- | --- | --- | --- | --- | --- | --- | --- | --- | --- | --- | --- | --- |
| C#CCOCCCC(=O)O | > 100 µM (inactive) | > 100 µM (inactive) | > 100 µM (inactive) | > 100 µM (inactive) | > 100 µM (inactive) | > 100 µM (inactive) | > 100 µM (inactive) | > 100 µM (inactive) | > 100 µM (inactive) | > 100 µM (inactive) | > 100 µM (inactive) | > 100 µM (inactive) | > 100 µM (inactive) | > 100 µM (inactive) | > 100 µM (inactive) | > 100 µM (inactive) | > 100 µM (inactive) |  |  |  |
| NCCN1C(=O)c2ccccc2C1(O)c1ccc(Cl)cc1 (centres undefined) | 21.6 µM (inactive) | 17.9 µM (inactive) | 52.8 µM (inactive) | 18.5 µM (inactive) | 14.2 µM (inactive) | 21.3 µM (inactive) | 17.3 µM (inactive) | 16.4 µM (inactive) | 16.7 µM (inactive) | 37.4 µM (inactive) | 16.4 µM (inactive) | 17.1 µM (inactive) | 17.3 µM (inactive) | 20.3 µM (inactive) | 17.3 µM (inactive) | 19.7 µM (inactive) | 19.6 µM (inactive) | 14.1 µM (inactive) |  |  |
| CC1(C)COC(c2cccc(C(=O)c3ccccc3)c2)=N1 |  | 90.6 µM (inactive) | 18.6 µM (inactive) | > 100 µM (inactive) |  | 34.9 µM (inactive) | 24.5 µM (inactive) | 41.9 µM (inactive) | 47.8 µM (inactive) | 31.6 µM (inactive) | 17.1 µM (inactive) | 26.2 µM (inactive) |  | 38.9 µM (inactive) | 36.8 µM (inactive) | 36.2 µM (inactive) | 33.1 µM (inactive) | 46.3 µM (inactive) | 29.1 µM (inactive) | 57.9 µM (inactive) |
| CCOC(=O)c1nnsc1NN | > 100 µM (inactive) | > 100 µM (inactive) | 10.5 µM (inactive) | > 100 µM (inactive) |  | > 100 µM (inactive) | 34 µM (inactive) | > 100 µM (inactive) | 60.5 µM (inactive) | > 100 µM (inactive) | > 100 µM (inactive) | > 100 µM (inactive) | > 100 µM (inactive) | > 100 µM (inactive) |  |  | 55.5 µM (inactive) |  | > 100 µM (inactive) | > 100 µM (inactive) |
| COc1ccccc1N1C(=O)CSC1c1cccc(Oc2ccccc2)c1 (centres undefined) | 17.2 µM (inactive) | 25.4 µM (inactive) | 20.9 µM (inactive) | 21.9 µM (inactive) | 20.7 µM (inactive) | 17.2 µM (inactive) | 29.9 µM (inactive) | 14.9 µM (inactive) | 18.2 µM (inactive) | 19.7 µM (inactive) | 16.3 µM (inactive) | 16.7 µM (inactive) | 17.8 µM (inactive) | 17.6 µM (inactive) |  | 32.8 µM (inactive) | 20.1 µM (inactive) | 16.3 µM (inactive) | 17.8 µM (inactive) |  |
| Cc1nc(C(N)=S)sc1C(=O)C/C(=N/N)C(=O)Nc1ccc(Cl)cc1 | > 100 µM (inactive) | > 100 µM (inactive) |  | > 100 µM (inactive) |  | 52.8 µM (inactive) | 45.8 µM (inactive) | > 100 µM (inactive) | 43.1 µM (inactive) | 60.4 µM (inactive) | 90.2 µM (inactive) | > 100 µM (inactive) | > 100 µM (inactive) | 72.9 µM (inactive) | 38.2 µM (inactive) | 31.3 µM (inactive) | 58.3 µM (inactive) | > 100 µM (inactive) | 70.6 µM (inactive) | > 100 µM (inactive) |
| CCOc1ccc(/C=C2\N=C(c3ccccc3)OC2=O)cc1 | > 100 µM (inactive) | > 100 µM (inactive) | > 100 µM (inactive) | > 100 µM (inactive) |  | > 100 µM (inactive) | 8.71 µM (inactive) | > 100 µM (inactive) | > 100 µM (inactive) | > 100 µM (inactive) | > 100 µM (inactive) | > 100 µM (inactive) | > 100 µM (inactive) | > 100 µM (inactive) | > 100 µM (inactive) | > 100 µM (inactive) | > 100 µM (inactive) |  | > 100 µM (inactive) | > 100 µM (inactive) |
| O=C1CCCC(=O)N1n1c(Cc2ccccc2)n[nH]c1=O |  | > 100 µM (inactive) | > 100 µM (inactive) | > 100 µM (inactive) | > 100 µM (inactive) | > 100 µM (inactive) | > 100 µM (inactive) | > 100 µM (inactive) | > 100 µM (inactive) | > 100 µM (inactive) | > 100 µM (inactive) | > 100 µM (inactive) | > 100 µM (inactive) | > 100 µM (inactive) | > 100 µM (inactive) | > 100 µM (inactive) | > 100 µM (inactive) | > 100 µM (inactive) | > 100 µM (inactive) |  |
| COC(=O)[C@H](Cc1ccccc1)NC(=O)OCC1OC(n2cc(C)c(=O)[nH]c2=O)CC1N=[N+]=[N-] (some centres undefined) |  | > 100 µM (inactive) | > 100 µM (inactive) | > 100 µM (inactive) |  | > 100 µM (inactive) | > 100 µM (inactive) | > 100 µM (inactive) | > 100 µM (inactive) | > 100 µM (inactive) | 4.12 µM (inactive) | > 100 µM (inactive) | > 100 µM (inactive) | > 100 µM (inactive) | > 100 µM (inactive) | > 100 µM (inactive) | > 100 µM (inactive) | > 100 µM (inactive) | > 100 µM (inactive) | > 100 µM (inactive) |
| CC1(C)CCCCCCC2CC2CCCCCC(C)(C)C1=O (centres undefined) | > 100 µM (inactive) | > 100 µM (inactive) | 16.6 µM (inactive) | > 100 µM (inactive) | > 100 µM (inactive) | 41.9 µM (inactive) | 33.5 µM (inactive) | > 100 µM (inactive) |  | 99.3 µM (inactive) | 49.7 µM (inactive) | 37.8 µM (inactive) | 24.3 µM (inactive) | > 100 µM (inactive) | 24.4 µM (inactive) | 29.9 µM (inactive) | 42 µM (inactive) | > 100 µM (inactive) | > 100 µM (inactive) |  |
| CC(OC(=O)NCn1cc(-c2ccccc2)nn1)c1ccccc1 (centres undefined) | 38.9 µM (inactive) | 75.2 µM (inactive) | 27.8 µM (inactive) | 58.7 µM (inactive) |  | 63.2 µM (inactive) | 20.8 µM (inactive) |  | 38.5 µM (inactive) | 33.7 µM (inactive) | 17.3 µM (inactive) | 35.1 µM (inactive) |  | 2.39 µM (inactive) | 30.2 µM (inactive) | 31.2 µM (inactive) | 25.6 µM (inactive) | 30.3 µM (inactive) |  | 39.2 µM (inactive) |
| COc1cc2c(c(OC)c1OC)C(=O)[C@@H]1[C@H]2N1C(N)=O | > 100 µM (inactive) | > 100 µM (inactive) | > 100 µM (inactive) | > 100 µM (inactive) |  | > 100 µM (inactive) | > 100 µM (inactive) | 22.1 µM (inactive) | > 100 µM (inactive) | > 100 µM (inactive) | 77.4 µM (inactive) | > 100 µM (inactive) | 79.8 µM (inactive) | > 100 µM (inactive) | > 100 µM (inactive) | > 100 µM (inactive) | > 100 µM (inactive) | > 100 µM (inactive) | > 100 µM (inactive) | 68.4 µM (inactive) |
| O=C1/C(=C/c2cccc(Br)c2)Cc2ccccc21 | 41.8 µM (inactive) | 63.5 µM (inactive) | 68.7 µM (inactive) | > 100 µM (inactive) |  | 27.7 µM (inactive) | 62.7 µM (inactive) | 54.3 µM (inactive) | 3.66 µM (inactive) | 50.6 µM (inactive) |  | 91 µM (inactive) |  | 29.9 µM (inactive) | 32.8 µM (inactive) | 58.9 µM (inactive) | 45 µM (inactive) | > 100 µM (inactive) | 31.8 µM (inactive) |  |
| COC1OCC(O)C(NC(=O)N(C)N=O)C1O (centres undefined) | > 100 µM (inactive) |  |  | > 100 µM (inactive) | > 100 µM (inactive) | > 100 µM (inactive) | > 100 µM (inactive) | > 100 µM (inactive) | > 100 µM (inactive) | > 100 µM (inactive) | > 100 µM (inactive) | > 100 µM (inactive) | > 100 µM (inactive) |  | > 100 µM (inactive) | > 100 µM (inactive) | > 100 µM (inactive) | > 100 µM (inactive) | > 100 µM (inactive) | > 100 µM (inactive) |
| COc1cc(/C=C/C(=O)OCCc2ccccc2)ccc1O | 18.6 µM (inactive) | 15.1 µM (inactive) | 0.352 µM (active) | 22.2 µM (inactive) |  | 16.3 µM (inactive) | 14.5 µM (inactive) | 12.7 µM (inactive) | 20.8 µM (inactive) | 23.7 µM (inactive) | 19.5 µM (inactive) | 18.1 µM (inactive) |  | 14.2 µM (inactive) | 20.5 µM (inactive) | 20.1 µM (inactive) | 21.3 µM (inactive) | 16.4 µM (inactive) | 13.9 µM (inactive) | 21 µM (inactive) |
| Oc1ccc(C(O)C2CCCCN2)cc1O (centres undefined) [RIMITEROL HYDROBROMIDE] | > 100 µM (inactive) | > 100 µM (inactive) |  | 46.7 µM (inactive) | > 100 µM (inactive) | > 100 µM (inactive) |  | > 100 µM (inactive) | > 100 µM (inactive) | > 100 µM (inactive) | > 100 µM (inactive) | 57.4 µM (inactive) | > 100 µM (inactive) | > 100 µM (inactive) | 54.7 µM (inactive) | > 100 µM (inactive) | > 100 µM (inactive) | > 100 µM (inactive) | 32.1 µM (inactive) |  |
